This assay deals with P388 leukemia ip, CD2F1 mice, survival T/C. The experiment in a line: NCI In Vivo Anticancer Drug Screen. Data for tumor model P388 Leukemia (intraperitoneal) in CD2F1 (CDF1) mice. The conditions noted are these: endpoint: median survival time, higher = longer survival. The essentials: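 Mice carrying the transplanted tumor received test compound or vehicle. Survival was recorded in each group, and the value is the treated-group measurement divided by that of the vehicle-treated control group.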

[1] abbreviates: dose: 50.0 mg/kg/injection, schedule: Q01DX005 (ip), vehicle: saline with Tween-80.
Where [2] appears, read: dose: 100.0 mg/kg/injection, schedule: Q01DX005 (ip), vehicle: saline with Tween-80.
[3] abbreviates: dose: 200.0 mg/kg/injection, schedule: Q01DX005 (ip), vehicle: saline with Tween-80.
[4] abbreviates: dose: 50.0 mg/kg/injection, schedule: Q01DX009 (ip), vehicle: saline.
Where [5] appears, read: dose: 100.0 mg/kg/injection, schedule: Q01DX009 (ip), vehicle: saline.
Setting [6] is: dose: 25.0 mg/kg/injection, schedule: Q04DX003 (ip), vehicle: saline with Tween-80.
Setting [7] is: dose: 50.0 mg/kg/injection, schedule: Q04DX003 (ip), vehicle: saline with Tween-80.
[8] abbreviates: dose: 100.0 mg/kg/injection, schedule: Q04DX003 (ip), vehicle: saline with Tween-80.
[9] abbreviates: dose: 50.0 mg/kg/injection, schedule: Q01DX005 (ip), vehicle: Klucel (hydroxypropylcellulose) (HPC).
[10] abbreviates: dose: 100.0 mg/kg/injection, schedule: Q01DX005 (ip), vehicle: Klucel (hydroxypropylcellulose) (HPC).
The mark [11] stands for this setting: dose: 200.0 mg/kg/injection, schedule: Q01DX005 (ip), vehicle: Klucel (hydroxypropylcellulose) (HPC).
Where [12] appears, read: dose: 50.0 mg/kg/injection, schedule: Q01DX009 (ip), vehicle: Klucel (hydroxypropylcellulose) (HPC).
Where [13] appears, read: dose: 100.0 mg/kg/injection, schedule: Q01DX009 (ip), vehicle: Klucel (hydroxypropylcellulose) (HPC).
[14] abbreviates: dose: 200.0 mg/kg/injection, schedule: Q01DX009 (ip), vehicle: Klucel (hydroxypropylcellulose) (HPC).
[15] abbreviates: dose: 100.0 mg/kg/injection, schedule: Q01DX001 (ip), vehicle: saline with Tween-80.
Setting [16] is: dose: 200.0 mg/kg/injection, schedule: Q01DX001 (ip), vehicle: saline with Tween-80.
The mark [17] stands for this setting: dose: 50.0 mg/kg/injection, schedule: Q01DX009 (ip), vehicle: saline with Tween-80.
The mark [18] stands for this setting: dose: 100.0 mg/kg/injection, schedule: Q01DX009 (ip), vehicle: saline with Tween-80.
[19] abbreviates: dose: 200.0 mg/kg/injection, schedule: Q01DX009 (ip), vehicle: saline with Tween-80.

Where “and” joins values, the source holds several entries; their conditions need not be identical. Equal values may be shown once. Inconclusive results and toxic doses are left out.

On to `Cc1ccnc(NN=O)c1`, for which the T/C is, setting by setting: (dose: 1.5 mg/kg/injection, schedule: Q01DX009 (ip), vehicle: water) 109 % of control; (dose: 1.56 mg/kg/injection, schedule: Q01DX009 (ip), vehicle: water) 100 % of control; (dose: 3.0 mg/kg/injection, schedule: Q01DX009 (ip), vehicle: water) 109 % of control; (dose: 3.12 mg/kg/injection, schedule: Q01DX009 (ip), vehicle: water) 117 % of control; (dose: 6.25 mg/kg/injection, schedule: Q01DX009 (ip), vehicle: water) 159 % of control; (dose: 12.5 mg/kg/injection, schedule: Q01DX009 (ip), vehicle: water) 87 % of control.

`O=C1NCC2CCCC1C2` (stereo not drawn): the T/C runs as follows: under setting [1], 101 % of control; under setting [2], 100 % of control; under setting [3], 97 % of control.

Consider `C[CH2][Sn]([Br])([c]1ccccc1)[c]1ccccc1CN(C)C` (stereo not drawn), for which the T/C was 91 % of control under setting [4] and 98 % of control under setting [5].

As for `Cc1ccc2c(ccc(/C=C\c3cc(C)c4cccnc4c3O)[n+]2C)c1`, the T/C is 124 % of control (dose: 0.78 mg/kg/injection, schedule: Q01DX009 (ip), vehicle: saline with Tween-80); 122 % of control (dose: 1.56 mg/kg/injection, schedule: Q01DX009 (ip), vehicle: saline with Tween-80); 121 % of control (dose: 3.13 mg/kg/injection, schedule: Q01DX009 (ip), vehicle: saline with Tween-80).

`CC(C)CCNc1ncnc2[nH]ncc12`: the T/C was 95 % of control under setting [6], 95 % of control under setting [7] and 100 % of control under setting [8].

`COc1cc(C2c3cc(O)c(OC)cc3CC3C(=O)OCC32)ccc1O` (stereo not drawn): the T/C was 95 % of control under setting [9], 95 % of control under setting [10] and 90 % of control under setting [11].

Turning to `O=C1NC(=O)[C@H]2C[C@H]3C(=O)NC(=O)[C@H]3[C@@H]12`, the T/C is 99 % of control (dose: 25.0 mg/kg/injection, schedule: Q01DX009 (ip), vehicle: Klucel (hydroxypropylcellulose) (HPC)); 101 % of control under setting [12]; 102 % of control and 107 % of control under setting [13]; 101 % of control and 107 % of control under setting [14]; 96 % of control (dose: 400.0 mg/kg/injection, schedule: Q01DX009 (ip), vehicle: Klucel (hydroxypropylcellulose) (HPC)).

Regarding `N#Cc1c(-c2ccccc2)sc2ccccc2c1=O`, the T/C under setting [15] was 99 % of control; the T/C under setting [16] is 93 % of control; the T/C (dose: 400.0 mg/kg/injection, schedule: Q01DX001 (ip), vehicle: saline with Tween-80) was 98 % of control.

Turning to `O=C(O)CNC(=O)C(CN1CC(=O)OC1c1ccc([N+](=O)[O-])cc1)N1C(=O)c2ccccc2C1=O` (stereo not drawn), the T/C is, setting by setting: under setting [6], 100 % of control; under setting [7], 100 % of control.

In the case of `COc1ccccc1N1C(=O)C(=O)C(C(C)=O)C1=O` (stereo not drawn), the T/C by setting is: under setting [12], 107 % of control; under setting [13], 106 % of control; under setting [14], 108 % of control.

`O=C1C(N=Nc2ccccc2)C(O)N(c2ccc(Cl)cc2)C(=S)N1c1cccc(Cl)c1Cl` (stereo not drawn): the T/C (dose: 100.0 mg/kg/injection, schedule: Q04DX002 (ip), vehicle: Klucel (hydroxypropylcellulose) (HPC)) was 100 % of control; the T/C (dose: 200.0 mg/kg/injection, schedule: Q04DX002 (ip), vehicle: Klucel (hydroxypropylcellulose) (HPC)) is 100 % of control; the T/C (dose: 400.0 mg/kg/injection, schedule: Q04DX002 (ip), vehicle: Klucel (hydroxypropylcellulose) (HPC)) was 99 % of control.

With `COc1ccc2c(NCCCCCCCCNc3c4ccc(OC)cc4nc4c(OC)cccc34)c3cccc(OC)c3nc2c1`, the T/C runs as follows: (dose: 0.63 mg/kg/injection, schedule: Q01DX009 (ip), vehicle: other) 166 % of control; (dose: 2.5 mg/kg/injection, schedule: Q01DX009 (ip), vehicle: other) 120 % of control; (dose: 5.0 mg/kg/injection, schedule: Q01DX009 (ip), vehicle: other) 86 % of control.

As to `O=S(=O)(N=N/C=C1\C=CC=CN1O)c1cccs1`, the T/C (dose: 50.0 mg/kg/injection, schedule: Q04DX002 (ip), vehicle: saline with Tween-80) is 100 % of control and the T/C (dose: 600.0 mg/kg/injection, schedule: Q04DX002 (ip), vehicle: saline with Tween-80) was 117 % of control.

Regarding `CNC(=S)N/N=C/CCCC/C=N/NC(=S)NC`, the T/C is, setting by setting: (dose: 100.0 mg/kg/injection, schedule: Q01DX001 (ip), vehicle: saline) 96 % of control; (dose: 200.0 mg/kg/injection, schedule: Q01DX001 (ip), vehicle: saline) 96 % of control; (dose: 400.0 mg/kg/injection, schedule: Q01DX001 (ip), vehicle: saline) 101 % of control.

For the compound `C[S+]1C2(C3CC4CC(C3)CC2C4)C12C1CC3CC(C1)CC2C3` (stereo not drawn), the T/C is 104 % of control (dose: 50.0 mg/kg/injection, schedule: Q01DX005 (ip), vehicle: distilled water + alcohol) and 109 % of control (dose: 100.0 mg/kg/injection, schedule: Q01DX005 (ip), vehicle: distilled water + alcohol).

Regarding `CN(C(=S)S(=O)(=O)C12CC3CC(CC(C3)C1)C2)c1ccccc1`, the T/C is 118 % of control (dose: 12.5 mg/kg/injection, schedule: Q01DX009 (ip), vehicle: Klucel (hydroxypropylcellulose) (HPC)) and 124 % of control under setting [12].

For the compound `CCCN(CCC)C(=O)C(c1ccccc1)C(O)(c1ccccc1)c1ccccc1` (stereo not drawn), the T/C under setting [9] is 100 % of control, the T/C under setting [10] was 95 % of control and the T/C under setting [11] was 92 % of control.

Regarding `COc1cc2c(cc1O)-c1c(cnn1-c1ccccc1)CCC2`, the T/C is, setting by setting: under setting [4], 119 % of control; under setting [5], 118 % of control; (dose: 200.0 mg/kg/injection, schedule: Q01DX009 (ip), vehicle: saline) 94 % of control.

For the compound `CCOC(=O)C#Cc1cccc(C#CC(=O)OCC)c1`, the T/C by setting is: (dose: 50.0 mg/kg/injection, schedule: Q01DX001 (ip), vehicle: saline with Tween-80) 98 % of control; under setting [15], 99 % of control and 118 % of control; under setting [16], 120 % of control.

`CCCCCCCCCCCCCCCCCC1=NCCN1CCN`: the T/C runs as follows: (dose: 25.0 mg/kg/injection, schedule: Q01DX009 (ip), vehicle: saline with Tween-80) 100 % of control; under setting [6], 100 % of control; under setting [17], 104 % of control; under setting [7], 109 % of control; under setting [18], 109 % of control; under setting [8], 95 % of control.

Take `C=CN1C(=O)N(C=C)C(C)(CC(C)C)C1=O` (stereo not drawn): the T/C under setting [17] is 100 % of control, the T/C under setting [18] is 100 % of control and the T/C under setting [19] was 112 % of control.

With `Cc1c(O)c(=O)ccn1C1OC(CO)C(O)C1O` (stereo not drawn), the T/C was 99 % of control (dose: 25.0 mg/kg/injection, schedule: Q01DX005 (ip), vehicle: saline); 104 % of control (dose: 50.0 mg/kg/injection, schedule: Q01DX005 (ip), vehicle: saline); 99 % of control (dose: 100.0 mg/kg/injection, schedule: Q01DX005 (ip), vehicle: saline); 104 % of control (dose: 200.0 mg/kg/injection, schedule: Q01DX005 (ip), vehicle: saline); 105 % of control (dose: 400.0 mg/kg/injection, schedule: Q01DX005 (ip), vehicle: saline).

`C(=C1/SC(c2ccccc2)=NC1c1ccccc1)/c1ccccc1` (stereo not drawn): the T/C reads like this: under setting [17], 92 % of control; under setting [18], 88 % of control; under setting [19], 96 % of control.

As for `O=C(NC(=O)c1ccccc1Cl)Nc1ccc(C(O)(C(F)(F)F)C(F)(F)F)cc1`, the T/C is 104 % of control under setting [1], 102 % of control under setting [2] and 100 % of control under setting [3].

As for `CNCC(=O)Nc1ccc2c(c1)C(=O)c1ccc(NC(=O)CNC)cc1C2=O`, the T/C (dose: 94.75 mg/kg/injection, schedule: Q01DX001 (ip), vehicle: suspension in saline) is 110 % of control.

Source of the values: PubChem BioAssay AID330 (DTP/NCI, 2004).
